The source of these data is patent publication US4032645A, “Injectable metronidazole composition” (G. D. Searle & Co., priority 1975, dated 1977).

SMILES strings stand for the structures. Where two headings read alike, the source gives them in different places.

For data set [1] the following is noted: water; cited from earlier work.
The format of data set [2] is physicochemical. Particulars: for amount dissolved: ethanol. An excerpt: The critical features of the solubility of metronidazole, [1-(2-hydroxyethyl)-2-methyl-5-nitroimidazole] are evident from FIGS. 1 through 6.
It is observed that the optimum solubility in water-ethanol mixtures occur at about 80% ethanol.
It is considered desirable to maintain N,N-dimethylacetamide concentrations in any formulation at a relatively low level. In FIG. 2, it is shown that 20% N,N-dimethylacetamide is not a suitable solvent system in combination with water or ethanol alone. Those satisfied with less desirable formulation could use a solvent system of 20% N,N-dimethylacetamide, 40% water, and 40% ethanol. […] One would also believe this for combinations of 30% N,N-dimethylacetamide and water and ethanol.
It can be observed from FIG. 3 that, unexpectedly, a solvent system of 30% N,N-dimethylacetamide in combination with the indicated proportions of ethanol and water solubilizes more than 500 mg./10 ml. of metronidazole.
Also, unexpectedly, FIGS. 4, 5 and 6 illustrate that the combination of ethanol, water and N,N-dimethylacetamide can be made to dissolve more than 500 mg. of metronidazole by the addition of nicotinamide, propylene glycol or 2,2-dimethyl-1,3-dioxolane-4-methanol. These systems have the advantages of an even lower percentage composition of N,N-dimethylacetamide. Optimum systems and the solubility of metroinidazole therein are illustrated in Table 1.

The conditions of data set [3]: most stable at a pH range; cited from earlier work.

Consider `Cc1ncc([N+](=O)[O-])n1CCO` [metronidazole, 1-(2-hydroxyethyl)-2-methyl-5-nitroimidazole], for which the aqueous solubility result in data set [1] is reported as “about 100 mg./10 ml”. Further, the “ethanol content at optimum solubility in water-ethanol mixtures” value in data set [2] is “about 80%”. For the same compound, the solubility result in data set [2] is given as “more than 500 mg./10 ml”. Besides, the amount dissolved entry in data set [2] (water and N,N-dimethylacetamide with addition of 2,2-dimethyl-1,3-dioxolane-4-methanol (FIG. 5)) was “more than 500 mg”; in data set [2] (water and N,N-dimethylacetamide with addition of nicotinamide (FIG. 6)), “more than 500 mg”; in data set [2] (water and N,N-dimethylacetamide with addition of propylene glycol (FIG. 4)), “more than 500 mg”. The “pH range of greatest stability” value in data set [3] was 5.0-7.5.
